Results published in patent US11478486B2, “Association of actives for treating prostate cancer” (priority 2017, dated 2022).

Key:
Assay type in all cases: cell-based, human
[1] = tested on: AR-V7; assay: CELIGO microscope observation of AR-V7 expression; settings: 22Rv1 cells, 72 hours; enzalutamide 30.0 μM, SB202190 5.0 μM, LY2228820 2.5 μM; control 30.0%
Procedure: The expression of AR-V7 was observed by the CELIGO microscope in 22Rv1 cells after 72 hours of culture.

[2] = tested on: AR-V7; assay: western blot of AR and AR-V7 expression in 22Rv1 cells; settings: 22Rv1, 72 hours; abiraterone 7.5 μM, enzalutamide 7.5 μM, SB202190 (504)
Procedure: Western blot analysis was performed, detecting the wild-type form of AR and the AR-V7 form as well (FIG. 7). In this way the inventors tested the involvement of the p38 inhibitor in abiraterone and enzalutamide resistance, the AR-V7.

[3] = tested on: p38 (MAPK14); assay: p38 activation, western blot with anti-phospho-p38 antibody; settings: 22Rv1 and LNCaP prostate cancer cells, 24 hours
Procedure: FIG. 1: Abiraterone induces p38 activation. Prostate cancer cells LNCaP (Androgen Receptor expressing cells) were treated with abiraterone (30 μM). Prostate cancer cells 22Rv1 (Androgen Receptor and AR-V7 expressing cells) were treated with 0.1, 1.0, 10.0 and 30.0 μM abiraterone during 24 hours. Protein were extracted and subjected to western blot analysis using anti-phospho-p38, anti-p38 and anti-tubulin antibodies. (Example 1)
[…]. A: LNCaP human prostate cells (Androgen Receptor expressing cells) were treated by enzalutamide (35.0 μM) during 24 h00. Phosphorylation p38 was assessed. Tubuline and non-phosphorylated proteins were stained as a loading control. B: same experiment with the Androgen Receptor and AR-V7 expressing 22Rv1 human prostate cancer cells (Example 1).

Structure (SMILES)	% of cells with ARv7 [1] [%]	AR-V7 expression [2]	activation of MAPK p38 (phosphorylated form of p38) [3]
CC(C)(C)Cn1c(N)nc2ccc(-c3[nH]c(C(C)(C)C)nc3-c3ccc(F)cc3)nc21 [LY2228820]	34.0		
Oc1ccc(-c2nc(-c3ccncc3)c(-c3ccc(F)cc3)[nH]2)cc1 [SB202190]	28.0	inhibits AR-V7 expression	
CNC(=O)c1ccc(N2C(=S)N(c3ccc(C#N)c(C(F)(F)F)c3)C(=O)C2(C)C)cc1F [enzalutamide]			activates the MAPK p38
